Test results reported in patent publication US20090155179A1, “KINETIC BIOMARKER FOR QUANTIFICATION OF LYMPHOPROLIFERATION, CLONAL EXPANSION, RECRUITMENT AND TRAFFICKING IN LYMPHOID TISSUES AND OF THE IN VIVO ACTIONS OF ANTIGENS AND MODULATING THEREON” (KINEMED, INC., priority 2005, published 2009).
Entries after “also recorded” stand apart in the source; their conditions may differ.

Assays:
[1] = test system: PLN cells (draining popliteal lymph node lymphocytes); experiment: kinetic PLNA (popliteal lymph node assay) with continuous 2H2O labeling after footpad immunization; assay type: in vivo, Balb/c mice; conditions: for PLN cellularity under drug treatment: 5 μg KLH or PBS, Rap 2 mg/kg/d p.o.
Protocol: PLNA and heavy water labeling. The kinetic PLNA was performed as follows, except as noted in the Figure legends. In all experiments, groups of n=4 or 5 Balb/c mice were immunized subcutaneously on day 0 in the left hind footpad (toe to heel direction) with 20 μl PBS or drug vehicle (negative control group), or with 20 μl PBS containing 5-25 μg KLH (positive control group). Heavy water labeling was initiated on day 0 by intraperitoneal administration of 99.9% ^2H2O containing 0.9% w/v NaCl at 35 ml/kg body weight, and animals were maintained on 8% ^2H2O in drinking water for the remainder of the study. At day 7 post immunization, animals were bled into heparinized tubes by cardiac puncture under isoflurane anesthesia and sacrificed by cervical dislocation. The blood was centrifuged at 1500×g for 10 minutes, and heparinized plasma was stored at −20° C. for determination of body water ^2H enrichment; a second aliquot was frozen for serologic studies. Bone marrow was harvested from the right hindlimb femur by flushing the bone with 1 ml PBS using a 25 ga cannula and centrifuging the tissue and cell suspension at 450×g for 5 min.
Analysis of PLN cells. Draining PLN were dissected from the left hind limb, mechanically dispersed, using tweezers, into ice-cold RPMI 1640 containing 10% fetal bovine serum and antibiotics. The cell suspensions were thoroughly mixed and strained through a 35 μm cell strainer fitted to a 12×75 mm polystyrene tube (BD Biosciences, San Jose, Calif.) and centrifuged at 450×g at 4° C. for 5 min. Cells were suspended in 100 μl staining buffer (PBS containing 0.5% w/v bovine serum albumin, 2 mM EDTA, and 0.05% sodium azide), blocked by addition of 20 μl mg/ml murine IgG (Sigma) and 2 μl anti-CD16/CD32 mAb (Miltenyi Biotec, City/State) at 4° C. for 15 min., and stained with anti-CD3-FITC and anti-B220-PE/Cy5 (eBioscience, 1 μl each) for 15 min. The samples were diluted to 900 μl with staining buffer, mixed thoroughly with 100 μl Flow-Count fluorospheres, and analyzed on an Epics XL flow cytometer (Beckman Coulter, City/State) for determination of absolute lymph node cell counts and percentages and absolute counts of T cells, B cells, and non-T/B cells. Absolute cell counts per lymph node were determined as:
Analysis of ^2H incorporation into purine dR. DNA was extracted from samples of bone marrow, total PLN cells, or sorted T and B cells using DNEasy kits (Qiagen, Valencia, Calif.) according to the manufacturer's instructions. Aliquots (0.5 μg) were hydrolyzed to […] by overnight incubation at 37° C. with 0.5 units nuclease SI (Sigma) and 0.25 units potato acid phosphatase (Calbiochem) in 75 mM sodium acetate buffer, pH 4.8, containing 0.15 mM ZnSO4. […] The hydroxyl groups were acetylated using acetic anhydride and N-methylimidazole, and the resultant pentafluorobenzyl […] derivative was extracted into dichloromethane, dried under vacuum, and redissolved in 100 μl ethyl acetate. The derivative was analyzed by gas chromatography/mass spectrometry (GC/MS) as described supra, with selected ion monitoring at m/z 435 (for the parent mass isotopomer, M0) and 436 (M1). After integration of the M0 and M1 peak area using ChemStation software, the excess mole fraction of the M1 mass isotopomer (EM1) was calculated as: […]
Calculations and statistics. Fractional turnover of PLN cell populations (f, the fraction of total, T, or B cells that have divided during the labeling period, representing clonal expansion, FIG. 1) was calculated as:
f=EM1observed/EM1maximal,
where EM1maximal was represented, in most experiments, by bone marrow DNA from the same animal, or assumed to equal 0.14. Alternatively, for mice labeled for less than four days, EM1maximal was represented by 0.9× the EMI value predicted from the animal's body water ^2H enrichment (the factor of 0.9 represents dilution by salvage).

[2] = tolerability of maintained 2H2O body water enrichment; assay type: in vivo; conditions: 1-10% of total body water labeled, weeks or months, humans (>100 people) and experimental animals
Source text: Relatively high body water enrichments of ^2H2O (e.g., 1-10% of the total body water is labeled) may be achieved relatively inexpensively using the techniques of the invention. […] This finding in a large number of human subjects (>100 people) is contrary to previous concerns about vestibular toxicities at high doses of ^2H2O. One of the Applicants has discovered that as long as rapid changes in body water enrichment are prevented (e.g., by initial administration in small, divided doses), high body water enrichments of ^2H2O can be maintained with no toxicities. For example, the low expense of commercially available ^2H2O allows long-term maintenance of enrichments in the 1-5% range at relatively low expense.

[3] = test system: xenografted human tumor cells; experiment: f of xenografted human tumor cells in mice; assay type: in vivo; conditions: 10 mg/kg/d, i.p.; previously seen
PLN cells = experiment: kinetic PLNA with 2H2O labeling after KLH immunization in C57BI/6 mice; assay type: in vivo, C57BI/6 (B6) mice; conditions: B6 mice
[4] = day 7, Dex 0.3 mg/kg/d p.o., Tax 10 mg/kg/d i.p., OHU 500 mg/kg/d i.p.

Question: Which “dose above which f reached a plateau” value ([1]; Balb/c, DNCB in PBS:DMSO, day 7) does the source give for `O=[N+]([O-])c1ccc(Cl)c([N+](=O)[O-])c1` [DNCB, 2,4-dinitrochlorobenzene] here?
Answer: above 100 μg

Question: Which “toxicity of maintained body water enrichment” value [2] does the source give for `[2H]O[2H]` [^2H2O] here?
Answer: without any evidence of toxicity

Question: For `NC(=O)NO` [hydroxyurea], which “PLN cellularity under drug treatment” value [1, 4] is on record?
Answer: modest and variable effects

Question: And the “f of total PLN cells after KLH stimulation” value ([1]; 5 μg KLH, daily drug to day 7: Rap 2 mg/kg/d p.o., OHU 500 mg/kg/d i.p.)?
Answer: strongly inhibited

Question: And the “f of total PLN cells at baseline” value ([1]; sham-immunized (PBS), daily drug to day 7: Rap 2 mg/kg/d p.o., OHU 500 mg/kg/d i.p.)?
Answer: strongly inhibited

Question: With `CC(=O)O[C@H]1C(=O)[C@@]2(C)[C@H]([C@H](OC(=O)c3ccccc3)[C@]3(O)C[C@H](OC(=O)[C@H](O)[C@@H](NC(=O)c4ccccc4)c4ccccc4)C(C)=C1C3(C)C)[C@]1(OC(C)=O)CO[C@@H]1C[C@@H]2O` [paclitaxel] as the compound, how does the “PLN cellularity under drug treatment” value [1, 4] read?
Answer: reduced

Question: And the “f (clonal expansion) of PLN cells under drug treatment” value ([1]; stimulation not specified, Tax 10 mg/kg/d i.p., Dex 0.3 mg/kg/d p.o., day 7)?
Answer: did not affect f

Question: What about the “f of xenografted human tumor cells in mice” value [3] of the same compound?
Answer: strong inhibition

Question: What does the source list for keyhole limpet hemocyanin [KLH]?
Answer: proliferation response to low doses of KLH ([1]; Balb/c, 0.2-2 μg KLH): increase in f without a change in PLN cellularity; proliferation response to higher doses of KLH ([1]; Balb/c, 5-25 μg KLH or with incomplete Freund's adjuvant): f reached a plateau; increase of PLN cellularity ([1]; Balb/c, KLH doses that increased cellularity): 2- to 3 fold; antigen dose at which cellularity was maximal ([1]; Balb/c, KLH in PBS, day 7): around 25 μg; antigen dose at which f was maximally increased ([1]; Balb/c, KLH, as little as): 600 ng; CD4+ T cell f ([1]; Balb/c, KLH-immunized, day 7, other attempts, vs. 7.5%±1.3% without KLH, p=0.017): 11.3%±2.1; proliferating cells as share of cells in the PLN ([1]; Balb/c, any KLH dose, day 7): ≤ 20%; f in total PLN cells after immunization ([1]; Balb/c, footpad immunization, day 7): elevated to a dose-independent plateau; also recorded: significant; also recorded: increased f; f in PLN B cells after immunization ([1]; Balb/c, sorted B cells, day 7): pronounced increase; also recorded: Significant KLH effect; also recorded: significantly increased; f in CD4+ T cells after immunization ([1]; Balb/c, sorted CD4+ T cells, day 7): smaller increase; f in CD8+ T cells after immunization ([1]; Balb/c, sorted CD8+ T cells, day 7): not in CD8^+ T cells; f in total T cells after immunization ([1]; Balb/c, sorted T cells, day 7): smaller increase; also recorded: Significant KLH effect; f in sorted B cells and total T cells (PLN cells; 200 μg KLH, day 7): Neither B cells nor T cells showed a substantial increase; f in PLN cells after KLH immunization, day 7 (PLN cells; 2-200 μg KLH, day 7): no significant increase; also recorded: lower; cellularity in PLN (PLN cells; 7 days after KLH immunization): dose-dependent; f in PLN cells, time course (PLN cells; KLH, day 4): transient increase
